Values of other authors in patent US9635858B2, “Pesticide and a method of controlling a wide variety of pests” (GOWAN COMERCIO INTERNACIONAL E SERVICOS LIMITADA, priority 2011, dated 2017).

Settings: rats; cited from earlier work

C/C=C(\C)C(=O)O[C@H]1C[C@@H](OC(C)=O)[C@@]2(C(=O)OC)CO[C@H]3[C@@H](O)[C@@](C)([C@]45O[C@@]4(C)[C@H]4C[C@@H]5O[C@@H]5OC=C[C@@]54O)C4[C@]1(CO[C@]4(O)C(=O)OC)[C@@H]32 (stereo partly shown) [Azadirachtin]
LD50: > 3,540 mg/kg
